Activity calls are given as the source filed them. The rule behind the calls is not given here.
Assays:
[1] = target: T1, Transcriptional enhancer factor TEF-1 (Homo sapiens, UniProt P28347); test: Displacement of FAM- labeled YAP1 peptide (60 to 99 residues) from human TEAD1 (209 to 426 residues) expressed in Escherichia coli BL21 (DE3) cells incubated for 24 hrs by fluorescence polarization-based competitive binding assay
[2] = target: T2, Transcriptional enhancer factor TEF-4 (Homo sapiens, UniProt Q15562); test: Displacement of FAM- labeled YAP1 peptide (60 to 99 residues) from human TEAD2 (217 to 447 residues) expressed in Escherichia coli BL21 (DE3) cells incubated for 24 hrs by fluorescence polarization-based competitive binding assay
[3] = target: T3, Transcriptional enhancer factor TEF-5 (Homo sapiens, UniProt Q99594); test: Displacement of FAM- labeled YAP1 peptide (60 to 99 residues) from human TEAD3 (210 to 427 residues) expressed in Escherichia coli BL21 (DE3) cells incubated for 24 hrs by fluorescence polarization-based competitive binding assay
[4] = target: T4, Transcriptional enhancer factor TEF-3 (Homo sapiens, UniProt Q15561); test: Displacement of FAM- labeled YAP1 peptide (60 to 99 residues) from human TEAD4 (217 to 434 residues) expressed in Escherichia coli BL21 (DE3) cells incubated for 24 hrs by fluorescence polarization-based competitive binding assay
[5] = target: T2, Transcriptional enhancer factor TEF-4; test: Displacement of FAM- labeled YAP1 peptide (60 to 99 residues) from human TEAD2 (217 to 447 residues) expressed in Escherichia coli BL21 (DE3) cells assessed as maximum inhibition at 0.2 to 100 uM incubated for 24 hrs by fluorescence polarization-based competitive binding assay relative to control; details: dose 0.2-100 µM
[6] = Inhibition of TEAD in human MDA-MB-468 cells assessed as inhibition of CTGF transcriptional level incubated for 24 hrs by qRT-PCR assay; format: cell-based
[7] = test system: MDA-MB-468; test: Inhibition of TEAD in human MDA-MB-468 cells assessed as maximal inhibition of CTGF transcriptional level at 0.01 to 100 uM incubated for 24 hrs by qRT-PCR assay relative to control; format: cell-based; details: dose 0.01-100 µM
[8] = target: T4, Transcriptional enhancer factor TEF-3; test: Inhibition of TEAD4 (unknown origin) transfected in human HEK293 cells co-transfected with renilla plasmid assessed as inhibition of transcriptional activity incubated for 24 hrs by dual Glo-luciferase reporter assay; format: cell-based
[9] = test system: Transcriptional enhancer factor TEF-3 (Homo sapiens), Q15561 [C367S]; test: Displacement of FAM- labeled YAP1 peptide (60 to 99 residues) from human TEAD4 (217 to 434 residues) C367S mutant expressed in Escherichia coli BL21 (DE3) cells at 0.2 to 100 uM incubated for 24 hrs by fluorescence polarization-based competitive binding assay; details: dose 0.2-100 µM
[10] = target: T4, Transcriptional enhancer factor TEF-3; test: Inhibition of TEAD4 (unknown origin) transfected in human HEK293 cells co-transfected with renilla plasmid assessed as maximum inhibition of transcriptional activity at 0.01 to 100 uM incubated for 24 hrs by dual Glo-luciferase reporter assay relative to control; format: cell-based; details: dose 0.01-100 µM
[11] = target: T1, Transcriptional enhancer factor TEF-1; test: Inhibition of TEAD1 (unknown origin) transfected in human HEK293 cells co-transfected with renilla plasmid assessed as inhibition of transcriptional activity incubated for 24 hrs by dual Glo-luciferase reporter assay; format: cell-based
[12] = target: T2, Transcriptional enhancer factor TEF-4; test: Inhibition of TEAD2 (unknown origin) transfected in human HEK293 cells co-transfected with renilla plasmid assessed as inhibition of transcriptional activity incubated for 24 hrs by dual Glo-luciferase reporter assay; format: cell-based
[13] = target: T3, Transcriptional enhancer factor TEF-5; test: Inhibition of TEAD3 (unknown origin) transfected in human HEK293 cells co-transfected with renilla plasmid assessed as inhibition of transcriptional activity incubated for 24 hrs by dual Glo-luciferase reporter assay; format: cell-based
[14] = target: YAP1-TEAD4 (Homo sapiens) (UniProt P46937+Q15561); test: Inhibition of NanoLuc-tagged TEAD4 (unknown origin)-Halo-Tagged YAP1 (unknown origin) protein-protein interaction transfected in HEK293 cells using furimazine as substrate at 10 uM incubated for 2 to 24 hrs by NanoBRET binding assay; format: cell-based; details: time 2-24 hrs
[15] = target: T1, Transcriptional enhancer factor TEF-1; test: Inhibition of TEAD1 (unknown origin) transfected in human HEK293 cells co-transfected with renilla plasmid assessed as maximum inhibition of transcriptional activity at 0.1 to 10 uM incubated for 24 hrs by dual Glo-luciferase reporter assay relative to control; format: cell-based; details: dose 0.1-10 µM
[16] = target: T2, Transcriptional enhancer factor TEF-4; test: Inhibition of TEAD2 (unknown origin) transfected in human HEK293 cells co-transfected with renilla plasmid assessed as maximum inhibition of transcriptional activity at 0.1 to 10 uM incubated for 24 hrs by dual Glo-luciferase reporter assay relative to control; format: cell-based; details: dose 0.1-10 µM
[17] = target: T4, Transcriptional enhancer factor TEF-3; test: Inhibition of TEAD4 (unknown origin) transfected in human HEK293 cells co-transfected with renilla plasmid assessed as maximum inhibition of transcriptional activity at 0.1 to 10 uM incubated for 24 hrs by dual Glo-luciferase reporter assay relative to control; format: cell-based; details: dose 0.1-10 µM
[18] = Homo sapiens, MDA-MB-468, 24 h, read-out: IC50

T3 sequence (Q99594 whole entry, the tested form may be a part): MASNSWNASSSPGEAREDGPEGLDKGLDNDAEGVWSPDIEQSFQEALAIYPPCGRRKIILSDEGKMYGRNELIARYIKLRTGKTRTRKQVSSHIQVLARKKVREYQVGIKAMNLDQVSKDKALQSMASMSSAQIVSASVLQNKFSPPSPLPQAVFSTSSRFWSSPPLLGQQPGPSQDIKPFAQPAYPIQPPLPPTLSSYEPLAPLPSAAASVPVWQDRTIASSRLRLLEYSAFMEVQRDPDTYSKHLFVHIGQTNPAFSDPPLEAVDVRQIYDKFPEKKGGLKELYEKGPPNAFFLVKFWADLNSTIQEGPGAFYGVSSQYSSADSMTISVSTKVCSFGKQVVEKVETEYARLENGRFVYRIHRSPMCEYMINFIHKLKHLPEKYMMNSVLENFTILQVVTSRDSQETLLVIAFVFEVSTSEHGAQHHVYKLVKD
T2 sequence (Q15562 whole entry, the tested form may be a part): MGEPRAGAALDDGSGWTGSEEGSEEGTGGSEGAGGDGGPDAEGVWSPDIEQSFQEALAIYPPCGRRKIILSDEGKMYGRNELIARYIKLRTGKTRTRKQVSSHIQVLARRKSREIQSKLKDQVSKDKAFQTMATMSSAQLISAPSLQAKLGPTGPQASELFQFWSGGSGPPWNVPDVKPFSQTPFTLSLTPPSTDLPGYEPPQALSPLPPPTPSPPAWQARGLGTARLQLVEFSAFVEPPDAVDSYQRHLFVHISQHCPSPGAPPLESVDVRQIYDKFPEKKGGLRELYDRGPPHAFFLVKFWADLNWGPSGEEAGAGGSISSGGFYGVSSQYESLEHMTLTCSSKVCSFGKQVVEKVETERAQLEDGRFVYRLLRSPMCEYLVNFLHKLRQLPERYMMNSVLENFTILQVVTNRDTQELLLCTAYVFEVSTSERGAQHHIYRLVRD
T4 sequence (Q15561 whole entry, the tested form may be a part): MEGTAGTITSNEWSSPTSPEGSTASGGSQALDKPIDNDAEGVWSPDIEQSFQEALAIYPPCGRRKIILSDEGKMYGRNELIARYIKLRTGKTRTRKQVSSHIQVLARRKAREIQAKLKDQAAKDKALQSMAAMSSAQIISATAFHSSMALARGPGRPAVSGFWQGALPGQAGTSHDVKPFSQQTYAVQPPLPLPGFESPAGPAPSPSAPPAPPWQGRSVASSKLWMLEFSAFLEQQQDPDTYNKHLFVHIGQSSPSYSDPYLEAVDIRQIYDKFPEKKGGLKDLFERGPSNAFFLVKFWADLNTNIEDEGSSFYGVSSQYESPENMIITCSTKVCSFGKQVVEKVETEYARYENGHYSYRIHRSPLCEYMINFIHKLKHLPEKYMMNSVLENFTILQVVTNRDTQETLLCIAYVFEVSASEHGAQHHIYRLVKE
T1 sequence (P28347 whole entry, the tested form may be a part): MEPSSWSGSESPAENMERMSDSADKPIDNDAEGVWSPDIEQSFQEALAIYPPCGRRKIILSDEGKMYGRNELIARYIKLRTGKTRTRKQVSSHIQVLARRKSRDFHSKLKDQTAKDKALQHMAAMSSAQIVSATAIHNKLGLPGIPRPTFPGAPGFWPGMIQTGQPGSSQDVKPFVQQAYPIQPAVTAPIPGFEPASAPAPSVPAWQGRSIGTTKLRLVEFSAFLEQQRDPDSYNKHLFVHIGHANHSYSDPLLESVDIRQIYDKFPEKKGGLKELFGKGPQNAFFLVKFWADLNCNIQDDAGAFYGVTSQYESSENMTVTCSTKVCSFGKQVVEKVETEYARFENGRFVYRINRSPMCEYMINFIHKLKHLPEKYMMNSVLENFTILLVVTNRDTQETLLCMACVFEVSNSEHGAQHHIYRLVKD
Chain of Transcriptional enhancer factor TEF-3 (Homo sapiens), Q15561 [C367S] (Q15561 whole entry C367S, the tested form may be a part): as the sequence (Q15561 whole entry, the tested form may be a part) above, with C367S counted along it

IC50 ([1]; read-out: IC50)	IC50 [2]	IC50 [3]	IC50 [4]	Imax [5]	IC50 [6, 18]	IC50 ([8]; read-out: IC50)	IC50 ([4]; read-out: IC50)	IC50 ([8]; hek293)	Structure (SMILES)	Imax [7]	further results
200 nM	800 nM	Not Active	Not Active	33%	1500 nM	2100 nM			N#CN1Cc2cccc(Nc3ccc(C(F)(F)F)cc3)c2C1	59.6%	
1600 nM	27600 nM	Not Active		45%	1100 nM	400 nM	51700 nM		N#CN1CC2CCCC(Nc3cccc(C(F)(F)F)c3)C2C1 (stereo unspecified)	28.6%	inhibition [9]: inactive; Imax [10]: 87.3%; IC50 [11]: 1600 nM; IC50 [12]: 2200 nM; IC50 [13]: 1200 nM; inhibition [14]: inactive; Imax [15]: 40%; Imax [16]: 28.2%; Imax [17]: 41.3%
	7500 nM	Not Active	Not Active	20%	2200 nM			Not Active	N#CN1CC2CCCC(Nc3ccccc3C(F)(F)F)C2C1 (stereo unspecified)	41.1%	IC50 [1]: Not Active
1500 nM	16100 nM	Not Active		39%			20100 nM	Not Active	N#CN1CC2CCCC(Nc3ccc(C(F)(F)F)cc3)C2C1 (stereo unspecified)	inactive	IC50 ([6]; mda-mb-468): Not Active
